Data as given in patent US20130253027A1, “DOSAGES OF ARYLSULFONAMIDE DERIVATIVES” (FOVEA PHARMACEUTICALS, priority 2010, published 2013).
Values joined by “and” are separate entries in the source; they are usually repeats but may differ in a detail not shown here. Equal entries are not always repeated. Values belong to the molecule of their own block, whether it stands above or below them.

Assays:
[1] = tested on: streptozotocin-diabetic Brown-Norway rats; experiment: Retinal vascular leakage (Evans Blue dye) after eye drops in streptozotocin-diabetic Brown-Norway rats; format: in vivo, rat
Source text: Administration of streptozotocin to rodents produces a massive destruction of pancreatic β-cells, and thus, triggers marked elevation of glycemia and development of a diabetic state which, in part, mimics early stages of type 1 diabetes. In this regard, streptozotocin-treated rats develop an inflammatory retinopathy featured by rupture of the blood-retinal barrier, increase of inflammatory mediators, cytokines and growth factors (VEGF, basic fibroblast growth factor), microglial cell activation and leukostasis.
Male Brown-Norway or Wistar rats were made diabetic by […] of 65 mg/kg intraperitoneal streptozotocin. Rats with a glycemia<350 mg/dl were discarded from the study. […] On day 15, retinal vascular leakage was determined by measurement of retinal content of Evans Blue dye.
Recombinant tissue kallikrein binding protein (rKBP) was used as a reference drug and was given intravitreally 48 hours before vascular leakage measurement. Values are means ±standard error mean of 12 eyes/group (6 rats). *** means that P<0.001 in a Student's t-test.
The route by which the phosphate salt of compound n° 49 reaches the retina following topical instillation was investigated to determine whether it is mainly by systemic circulation or by the trans- and/or peri-ocular pathway.

[2] = tested on: mRNA of cytokines, vasoactive mediators and growth factors in retina; experiment: Expression of mRNA of cytokines, vasoactive mediators and growth factors in retina of diabetic Wistar rats; format: in vivo, rat; settings: 1% eye drops for 7 days, phosphate salt
Source text: Expression of mRNA of B1R, B2R, i-NOS, e-NOS, COX-2, ICAM-1, VEGF-R2, VEGF-a, IL-1β and HIF-1α was increased in diabetic rat retina compared to control by 7.5-fold (P<0.05), 5.5, 15- (P<0.01), 6.5- , 8- (P<0.05), 8- , 5- (P<0.05), 12-, 6.5- (P<0.01) and 7-fold (P<0.05), respectively. Expression of TNF-α mRNA remained unchanged.

[3] = tested on: leukocyte adhesion to the retinal vasculature; experiment: Leukocyte adhesion to the retinal vasculature of streptozotocin-diabetic Wistar rats; format: in vivo, rat; settings: phosphate salt, 1% eye drop twice-a-day for 7 days; P<0.05
[4] = Ocular distribution study in albino and pigmented rabbits (14C-compound, single ocular administration); format: in vivo, rabbit
Source text: Further, an ocular distribution study in albino and pigmented rabbits has been performed.

[5] = tested on: mRNA of cytokines, vasoactive mediators and growth factors in retina; experiment: Expression of mRNA of cytokines, vasoactive mediators and growth factors in retina of diabetic Wistar rats; format: in vivo, rat; settings: 1% eye drops for 7 days, phosphate salt; remark: listed apart in the source
[6] = tested on: STZ diabetic Brown-Norway rats; settings: intravitreal route, positive reference drug; cited from earlier work
[7] = single ocular 30 μl of 2% (base equivalent) 14C formulation

Cmax in plasma ([4]; albino and pigmented rabbits (similar profiles), single ocular 30 μl of 2%): 88 ng/mL
AUC 0-48 in aqueous, retina, choroids, whole blood and plasma, pigmented rabbit higher than albino [4, 7]: at least 2 fold
Cmax, pigmented rabbit lower than albino [4, 7]: at least 2 fold
t½ in vitreous, retina and choroids, pigmented rabbit higher than albino [4, 7]: at least 2 fold
Molecule: COc1cc(C)c(S(=O)(=O)N(C)CCOCC(=O)N(C)Cc2ccc(C3=NCCN3)cc2)c(C)c1 [compound n° 49]
reduction of retinal edema, maximum ([1]; 1% eye drops, two separate preliminary studies (data not shown)): 58% and 63%
reduction of retinal vascular permeability, treated eye ([1]; 3% phosphate salt in a single eye for 7 days): 37%
reduction of retinal oedema, maximum ([1]; phosphate salt, eye drop (10 μl) 0.1-3% twice daily for 7 days, dose-dependent): 55%
activity of phosphate salt form compared to fumarate salt ([1]; test not specified): equivalent activity
mRNA expression of B1R in retina [2]: down-regulated to control level
mRNA expression of B2R in retina [2]: down-regulated to control level
mRNA expression of COX-2 in retina [2]: down-regulated to control level
mRNA expression of HIF-1α in retina [2]: down-regulated to control level
mRNA expression of ICAM-1 in retina [2]: down-regulated to control level
mRNA expression of VEGF-A in retina (first mention in list) [2]: down-regulated to control level
mRNA expression of e-NOS in retina [2]: down-regulated to control level
mRNA expression of i-NOS in retina [2]: down-regulated to control level
reduction of expression of VEGF-A mRNA in retina [2]: 50%
leukostasis (number of leukocytes in retinal vessels) [3]: significantly blunted
mRNA expression of IL-1α in retina [5]: down-regulated to control level

B1: rKBP: Recombinant tissue kallikrein binding protein, reference drug given intravitreally (protein, UniProt P29622 21-427, looked up)
Kallistatin: QLHVEHDGESCSNSSHQQILETGEGSPSLKIAPANADFAFRFYYLIASETPGKNIFFSPLSISAAYAMLSLGACSHSRSQILEGLGFNLTELSESDVHRGFQHLLHTLNLPGHGLETRVGSALFLSHNLKFLAKFLNDTMAVYEAKLFHTNFYDTVGTIQLINDHVKKETRGKIVDLVSELKKDVLMVLVNYIYFKALWEKPFISSRTTPKDFYVDENTTVRVPMMLQDQEHHWYLHDRYLPCSVLRMDYKGDATVFFILPNQGKMREIEEVLTPEMLMRWNNLLRKRNFYKKLELHLPKFSISGSYVLDQILPRLGFTDLFSKWADLSGITKQQKLEASKSFHKATLDVDEAGTEAAAATSFAIKFFSAQTNRHILRFNRPFLVVIFSTSTQSVLFLGKVVDPTKP
reduction of retinal vascular leakage [6]: approximately 50%
